Data published in PMC9696794, “Synthesis and Antimicrobial Activity of Short Analogues of the Marine Antimicrobial Peptide Turgencin A: Effects of SAR Optimizations, Cys-Cys Cyclization and Lipopeptide Modifications” (International Journal of Molecular Sciences, 2022).
Values after ≈ are worked out from the molar mass of the structure shown. Where a SMILES comes first, the peptide text is derived from it. Bridges are numbered along the chain shown (N, C = ends). The star is where a group is joined. Lauroyl = CCCCCCCCCCCC(=O)*; Octanoyl = CCCCCCCC(=O)*

Columns and labels:
Rhodotorula sp. (Rh) = assay: microbe, parasite or virus in culture; format: cell-based; conditions: 48 h
Procedure, shortened: (§1)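 Overnight cultures in potato dextrose broth with 2% glucose at 25–30 °C were diluted to approx. 4 × 10^5 spores/mL and mixed 1:1 with two-fold peptide dilutions plated at 256 to 1 µg/mL. After 48 h at room temperature, OD600 was read. MIC was the lowest concentration giving OD below 10% of the growth control, in triplicate.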

[1] = tested on: E. coli NR698 (outer membrane permeable mutant, imp4213); assay: microbe, parasite or virus in culture; conditions: for MIC E. coli NR698 (mutant): MC4100 NR698 imp4213, deficient outer membrane
Procedure, shortened: (§2)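 Broth microdilution in Mueller–Hinton medium, 2.5–3 × 10^4 CFU/mL inoculum, two-fold peptide dilutions from 256 to 1 µg/mL, 35 °C with OD595 read hourly for 24 h. MIC is the lowest concentration giving OD below 10% of the untreated growth control; run in triplicate.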

[2] = tested on: E. coli MC4100 (wild type, WT); assay: microbe, parasite or virus in culture; conditions: for MIC E. coli MC4100 (WT): wild type
Procedure, shortened: as §2

[3] = tested on: C. albicans (Ca, ATCC 10231); assay: microbe, parasite or virus in culture; format: cell-based, Candida albicans; conditions: for Antimicrobial Activity (MIC) Fungi Ca: ATCC 10231, 48 h
Procedure, shortened: as §1

E. coli K12 [4] = assay: Bacterial biosensor membrane integrity assay (luciferase, D-luciferin influx); format: cell-based, Escherichia coli
Excerpt: (§3) Changes in light emission of sensor bacteria constitutively expressing the bacterial lux operon or a eukaryotic luciferase can be used as a proxy for viability and membrane integrity, respectively. Light production of the viability biosensors represents metabolic activity of the bacteria. For the membrane integrity assay on the other hand, light production depends on the influx of the externally added D-luciferin, which at neural pH will not readily pass the intact plasma membrane. An initial increase in light production therefore corresponds with damage to the plasma membrane and a concomitant influx of D-luciferin, while a subsequent drop in light emission indicates diminishing ATP reserves of the dying sensor bacteria.
A membrane integrity assay was performed using two bacterial biosensors, B. subtilis 168 (ATCC 23857) and E. coli K12 (ATCC MC1061). Both strains carry the pCSS962 plasmid that contains a eukaryotic luciferase gene (lucGR), which originate from the click beetle Pyrophorus plagiophthalamus. The assay was performed as described previously. […] D-luciferin potassium salt (Synchem Inc., Elk Grove Village, IL, USA) was added to the cell suspension at a final concentration of 1 mM. Two-fold dilutions (final assay concentration of 50–1.56 µg/mL) of peptides dissolved in Milli-Q water were prepared and added (10 µL per well) to black round-bottom 96-well microtiter plates (Nunc). Milli-Q water served as a negative control used for the normalization purpose and CHX, having known membranolytic activity, was used as a positive control. The plates were loaded into a Synergy H1 Hybrid Reader and the background luminescence was monitored before aliquots (90 µL) of the cell suspension with D-luciferin were added, one well at the time, by an automatic injector. Light emission was recorded every second for 3 min. Each study was performed at least three times independently, and the figures show a representative dataset.

B. subtilis 168 = assay: Bacterial biosensor viability assay (lux operon luminescence); format: cell-based, Bacillus subtilis; conditions: B. subtilis 168, increasing concentrations, within 3 min
Excerpt: as §3
(§4) Bacterial viability, based on light production by constitutively expressed bacterial luciferase, was measured in real time according to the method described by Hansen et al.. The assay was performed using B. subtilis 168 with chromosomally integrated luxABCDE operon and E. coli K12 carrying the plasmid pCGLS-11 containing the luxCDABE operon. […] No D-luciferin was added to the cell suspension. Each assay was performed at least three times independently, and the figures show a representative dataset.

S. aureus (ATCC 9144) = assay: Bacterial killing experiment (CFU count after MIC assay); format: cell-based, Staphylococcus aureus
Description: A killing experiment was performed on selected lipopeptides by using actively growing cultures of S. aureus (ATCC 9144) and E. coli (ATCC 25922). The procedure was performed as previously described. […] The number of colony-forming units (CFU) was determined after 24 h of incubation at 37 °C. The tests were performed in triplicate.

E. coli K12 [5] = assay: Bacterial biosensor viability assay (lux operon luminescence); format: cell-based, Escherichia coli; conditions: E. coli K12, within 3 min
Excerpt: as §3, §4

[6] = tested on: Gram-positive bacterial strains; conditions: Table S3; MIC >256 set to 256
Procedure, shortened: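 Cultures grown in Mueller–Hinton broth were adjusted by OD600 to 2.5–3 × 10^4 CFU/mL and mixed with two-fold peptide dilutions from 256 to 1 µg/mL. Plates were incubated at 35 °C with OD595 monitored every hour for 24 h.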

[7] = at half-MIC, compared to growth control

Row | Compound | MIC (Rhodotorula sp. (Rh); Rhodotorula sp., read-out: Antimicrobial Activity (MIC) Fungi Rh) [µg/mL] | MIC ([1]; Escherichia coli, read-out: MIC E. coli NR698 (mutant)) [µg/mL] | MIC ([2]; Escherichia coli, read-out: MIC E. coli MC4100 (WT)) [µg/mL] | MIC ([3]; Candida albicans, ATCC10231, C. albicans ATCC 10231, 48 h, read-out: Antimicrobial Activity (MIC) Fungi Ca) [µg/mL] | effect in membrane integrity assay (E. coli K12 [4]; E. coli K12, 50 µg/mL) | Antimicrobial Activity (MIC) Fungi Rh (Rhodotorula sp. (Rh)) [µg/mL] | effect on viability (light emission) (B. subtilis 168) | MIC E. coli NR698 (mutant) [1] [µg/mL] | MIC E. coli MC4100 (WT) [2] [µg/mL] | colony-forming units (CFU) after treatment (S. aureus (ATCC 9144); at MIC (or above), 24 h) | colony-forming units (CFU) after treatment (S. aureus (ATCC 9144); [7]) | Antimicrobial Activity (MIC) Fungi Ca [3] [µg/mL] | effect on viability (light emission) (E. coli K12 [5]) | GM of MIC G+ [6] [µg/mL] | effect in membrane integrity assay (E. coli K12 [4]; E. coli K12, 25 µg/mL) | rise in luminescence in membrane integrity assay (E. coli K12 [4]; E. coli K12, 50 µg/mL, delayed compared to chlorhexidine) [fold] | effect in membrane integrity assay (E. coli K12 [4]; E. coli K12, concentrations lower than 25 µg/mL)
1 | [H]/N=C(\N/C(=N/[H])NCCCCCCNC(=N)NC(=N)Nc1ccc(Cl)cc1)Nc1ccc(Cl)cc1 [Chlorhexidine, reference compound] | 1 | 0.3 (≈ 0.594 µM) | 0.3 (≈ 0.594 µM) | 7.8 |  |  |  |  |  |  |  |  |  |  |  |  | 
2 | CCCCCCCC(=O)N[C@H]1CSSC[C@@H](C(=O)N[C@@H](CCCCN)C(=O)N[C@@H](CC(C)C)C(N)=O)NC(=O)[C@H](CCCCN)NC(=O)[C@H](Cc2c[nH]c3ccccc23)NC(=O)CNC(=O)[C@H](Cc2c[nH]c3ccccc23)NC(=O)[C@H](Cc2c[nH]c3ccccc23)NC(=O)[C@H](CCCCN)NC(=O)[C@H](CCCCN)NC(=O)CNC1=O [Peptide C8-cTurg-2, C8- (CGKKWWGWKC)KL-NH2] (Octanoyl-CGKKWWGWKCKL-NH2; disulfide 1-10) |  |  |  |  | even further delayed rise in peak luminescence | 4 | dose-dependent effect on viability | 2 (≈ 1.21 µM) | 8 (≈ 4.86 µM) | No CFU were observed | slightly less colony-forming units (CFU) were formed | 32 | gradual, dose-dependent reduction in viability | 3 |  |  | 
3 | CCCCCCCCCCCC(=O)N[C@H]1CSSC[C@@H](C(=O)N[C@@H](CCCCN)C(=O)N[C@@H](CC(C)C)C(N)=O)NC(=O)[C@H](CCCCN)NC(=O)[C@H](Cc2c[nH]c3ccccc23)NC(=O)CNC(=O)CNC(=O)[C@@H]2CCCN2C(=O)[C@H](CCCCN)NC(=O)[C@H](CCCCN)NC(=O)CNC1=O [Peptide C12-cTurg-1, C12 -(CGKKPGGWKC)KL-NH2] (Lauroyl-CGKKPGGWKCKL-NH2; disulfide 1-10) |  |  |  |  |  | 4 | dose-dependent effect on viability | 2 (≈ 1.35 µM) | 4 (≈ 2.7 µM) | No CFU were observed | slightly less colony-forming units (CFU) were formed | 64 | gradual, dose-dependent reduction in viability | 3 | further delayed response | 3.5 | no effect
